The text below walks through data of patent US20050265999A1, “Modulation of 5-HT2 receptors as a treatment for cardiovascular diseases” (Myogen, Inc., priority 2003, published 2005).

Molecules are shown by their SMILES.

Assay [1] has as its target T1, 5-HT2C (Homo sapiens, UniProt P28335).
T1 sequence (P28335 33-458): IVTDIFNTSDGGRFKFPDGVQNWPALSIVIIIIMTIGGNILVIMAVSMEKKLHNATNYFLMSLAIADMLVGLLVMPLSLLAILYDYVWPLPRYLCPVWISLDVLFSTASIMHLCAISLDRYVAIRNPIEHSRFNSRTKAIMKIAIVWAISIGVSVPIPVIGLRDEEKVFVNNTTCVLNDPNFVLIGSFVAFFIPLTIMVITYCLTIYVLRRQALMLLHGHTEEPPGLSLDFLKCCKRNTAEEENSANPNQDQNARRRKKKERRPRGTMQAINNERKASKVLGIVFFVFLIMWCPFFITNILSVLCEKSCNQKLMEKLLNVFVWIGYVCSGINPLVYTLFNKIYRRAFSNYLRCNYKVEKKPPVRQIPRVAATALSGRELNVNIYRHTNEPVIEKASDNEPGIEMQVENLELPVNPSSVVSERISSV
In words: Radioligand receptor binding assay. To be noted: 10 μM compound, n=2.

The test system of assay [2] is MCIP1 exon 4 promoter luciferase reporter. In words: High throughput MCIP1-luciferase reporter screen in H9c2 muscle cells. It counts as cell-based, rat. Conditions: screen of 20,000 compounds. From the text: A high throughput screen for small molecules that enhance MCIP1 expression in cardiac myocytes. The inventors set out to perform a high throughput screen of a combinatorial small molecule library for compounds capable of increasing MCIP1 expression in cultured H9c2 muscle cells. Toward that end, the inventors used a luciferase reporter gene controlled by the region upstream of exon 4 of the human MCIP1 gene (−874 to +30). This genomic region contains 15 NFAT binding sites and confers calcineurin responsiveness to MCIP1. Transcripts initiated from exon 4 encode a MCIP1 protein with a Mr=28 kD.
On the technique in general: A reporter such as luciferase makes a cellular process visible.

The subject of assay [3] is neonatal rat ventricular myocytes (NRVM). In words: ANF secretion by competitive ELISA in NRVM. The format is cell-based. Conditions: NRVM stimulated with compound alone. The method, then: (§1) NRVM culture. For preparations of neonatal rat ventricular myocytes (NRVMs), hearts were removed from 10-20 newborn (1-2 days old) Sprague-Dawley rats. Isolated ventricles were pooled, minced and dispersed by three 20-min incubations at 37° C. in Ads buffer (116 mM NaCl, 20 mM HEPES, 10 mM NaH2PO4, 5.5 mM glucose, 5 mM KCl, 0.8 mM MgSO4, pH 7.4) containing collagenase Type II (65 units/ml, Worthington) and pancreatin (0.6 mg/ml, GibcoBRL). Dispersed cells were applied to a discontinuous gradient of 40.5% and 58.5% (v/v) Percoll (Amersham Biosciences), centrifuged, and myocytes collected from the interface layer. Myocyte preparations were pre-plated in Dulbecco's modified Eagle's medium (DMEM, Cellgro), supplemented with 10% (v/v) fetal bovine serum (FBS, HyClone), 4 mM L-glutamine and 1% penicillin/streptomycin for 1 hour at 37° C. to reduce fibroblast contamination, then plated at a density of 2.5×10^5 cells per well on 6-well tissue culture plates (or 10,000 cells/well on 96-well tissue culture plates) coated with a 0.2% (w/v) gelatin solution. […]
(§2) Hypertrophy and toxicity assays. Primary hypertrophy endpoints for NRVM included quantitation of: ANF secretion, total cellular protein and cell volume. ANF in media supernatants was quantitated by competitive ELISA using a monoclonal anti-ANF antibody (Biodesign) and a biotinylated ANF peptide (Phoenix Peptide). Total cellular protein was quantitated by standard Coomassie dye-binding assay; cells were lysed in protein assay reagent (BioRad) and absorbance at A595 was measured after 1 hour. […] After recovery by centrifugation, cell pellets were washed in PBS, resuspended in 10 ml IsoFlow electrolyte solution (Beckman-Coulter) and analyzed with a Z2 Coulter Particle Counter and Size Analyzer (Beckman-Coulter). Cytotoxicity was quantitated by measuring release of adenylate kinase (AK) from cultured NRVM into culture medium (ToxiLight kit, Cambrex).
For orientation: In an ELISA, binding on a coated surface is turned into a signal by an enzyme label.

The test system is the same in assay [4]. In words: Cell volume measurement (Coulter counter) of NRVM. It counts as cell-based. Conditions: NRVM stimulated with compound alone. How it is done:
as §1, §2

In assay [5] the test system is beta myosin heavy chain. As to the kind of experiment: Beta myosin heavy chain protein quantitation by cytoblot in NRVM. The format is cell-based, rat. To be noted: 1 μM, 48 h. The method, then: Beta myosin heavy chain protein quantitation by cytoblot. NRVM were plated overnight in 96-well plates. The next day, medium was replaced with serum-free maintenance medium for 4 hours, and test compounds added. Forty-eight hours later, wells were washed twice with […] PBS, aspirating between washes. Cells were fixed by adding […] methanol for 30 min. Methanol was aspirated and wells washed twice with […] PBS. Next, […] blocking solution (PBS+1% BSA) was added for 1 hr at room temperature. Blocking solution was aspirated and […] primary antibody solution added (β-myosin heavy chain hybridoma supernatant+1% BSA) for 1 hr at room temperature. Primary antibody solution was removed and wells washed three times with […] PBS+1% BSA. Wash was aspirated and […] secondary antibody solution added (1:500 dilution of goat […] HRP conjugate in PBS+1% BSA; Southern Biotech #4050-05) for 1 hr at room temperature. Secondary antibody solution was removed and wells washed three times with […] PBS. Wash was aspirated and […] luminol solution added (Pierce #34080). Plates were read in a 96-well luminometer (Packard Fusion).

The subject of assay [6] is neonatal rat ventricular myocytes (NRVM). As to the kind of experiment: Affymetrix gene expression screening of NRVM. It counts as cell-based. Set-up: dose or concentration left out as unconfirmed. The source says: Affymetrix screening. RNA was extracted from unstimulated NRVM and hypertrophic NRVM exposed to compound 18264 […] (Trizol Reagent, GibcoBRL). RNA samples were converted to biotin-labeled cRNA and hybridized to Rat expression arrays (Affymetrix GeneChip). Arrays were then washed, scanned and quantitated as per manufacturer's instructions.

By inhibition is commonly meant the drop in the measured response relative to a control, in per cent. Regarding `Cc1c(-c2ccccc2)nc2sc3c(c2c1N)CCCC3` [Compound 18264, 3-Methyl-2-phenyl-5,6,7,8-tetrahydro-benzo[4,5]thieno[2,3-b]pyridin-4-ylamine], in assay [1], at 10 µM the inhibition was 42%. Also, the “stimulation of MCIP1-luciferase expression” value in assay [2] was “approximately two-fold”. Further, the ANF expression/secretion result in assay [3] was “up-regulated ANF expression”. In assay [4], the cell volume result is reported as “increased”. The “expression of fetal beta isoform of myosin heavy chain” value in assay [5] is recorded as “significantly up-regulated”. Also, in assay [6], the “-Fold upreg. of Alpha skeletal actin” value worked out at 2.1 fold; the “-Fold upreg. of Atrial natriuretic factor” value amounted to 2.3 fold; the “-Fold upreg. of Brain natriuretic factor” value is 4.1 fold; the “-Fold upreg. of Myosin heavy chain, embryonic” value worked out at 29 fold.
